{"source": "paper PMC4305287", "about": "“Two Novel α7 Nicotinic Acetylcholine Receptor Ligands: In Vitro Properties and Their Efficacy in Collagen-Induced Arthritis in Mice” (PLoS ONE, 2015)", "key": {"[1]": {"test_system": "T1, human α7 nAChR primed with PNU-120596", "T1 construct": "expressed in transfected cells; host or cells: Xenopus laevis oocytes injected with cRNA; clones from Dr. Jon Lindstrom (α7) and Dr. Millet Treinin (RIC-3)", "assay": "electrophysiology of oocytes primed with PNU-120596", "type": "biochemical", "procedure": "Each oocyte received two initial control applications of 300 μM ACh, followed by the experimental drug application, and subsequent control application of 300 μM ACh, unless otherwise indicated. Responses to experimental drug applications were determined relative to the preceding ACh control responses in order to normalize the data, compensating for the varying levels of channel expression among the oocytes. Responses for α7 nAChR were calculated as net charge, since peak currents inaccurately report the agonist concentration dependence of α7 nAChR-mediated responses. […] Imax, n, and the EC50 were all unconstrained for the fitting procedures except in the case of the ACh concentration-response curves."}, "[2]": {"test_system": "collagen-induced arthritis", "parameters": "method as in PMID 19116908", "conditions": "cited from earlier work"}, "microglia": {"test_system": "microglia", "parameters": "method as in PMID 22884467", "conditions": "cited from earlier work"}, "memory retention": {"test_system": "memory retention", "parameters": "method as in PMID 19845675", "conditions": "cited from earlier work"}}, "data": [{"smiles": "CCN1C[C@]2(COC(=O)c3ccccc3N3C(=O)C[C@H](C)C3=O)CC[C@H](OC)[C@@]34[C@@H]5C[C@H]6[C@H](OC)[C@@H]5[C@](O)(C[C@@H]6OC)[C@@](O)([C@@H](OC)[C@H]23)[C@@H]14", "note": "[MLA, methyllycaconitine]", "values": [{"measurement": "ion channel response of PNU-120596 primed cells", "setting": "[1]; after 60 s priming with 300 μM PNU-120596, PMP-311 1 μM, PMP-072 10 μM, MLA 10 μM", "result": "fail to activate the primed cells"}]}, {"smiles": "O=C1NCC2(CN3CCC2CC3)O1", "note": "(centres unmarked) [AR-R17779]", "values": [{"measurement": "effect on arthritis activity in CIA", "setting": "[2]", "result": "ameliorates arthritis activity"}]}, {"smiles": "COc1cc(OC)c(NC(=O)Nc2cc(C)on2)cc1Cl", "note": "[PNU-120596]", "values": [{"measurement": "ion channel current during PNU-120596 application alone", "setting": "[1]; 300 μM for 60 s", "result": "No ion channel current was stimulated"}]}, {"smiles": "O=C(c1ccc(-c2cccc(C(F)(F)F)c2)o1)N1CCN2CCC1CC2", "note": "[NS-6740]", "values": [{"measurement": "LPS-induced TNF release in microglia", "setting": "microglia", "result": "reduce LPS-induced TNF release"}, {"measurement": "memory retention in a cognitive mouse model", "setting": "memory retention", "result": "unable to improve memory retention"}]}]}
